Read-outs that look alike come from different tables or passages of the source.
Legend:
[1] = biological target: T1, human aPC (Homo sapiens, UniProt P04070); test: In vitro enzyme assay for specificity: activated protein C, IC50; format: biochemical; conditions: Table 3
T1 construct: purchased Hematologic Technologies, Inc
Procedure: aPC catalytic activity was determined using the chromogenic substrate, Pefachrome PC (delta-carbobenzloxy-D-lysine -L-prolyl-L-arginine-p-nitroanilide), obtained from Pentapharm Ltd.). […] Purified human aPC was obtained from Hematologic Technologies, Inc. The enzyme was diluted into HBSA prior to assay in which the final concentration was 1.0 nM.

[2] = system: FeCl3 -induced Platelet-dependent Arterial Thrombosis; test: Rat model of FeCl3 -induced platelet-dependent arterial thrombosis; format: in vivo; conditions: for ED50 for thrombus prevention (dose that prevents complete thrombotic occlusion in 50% of animals tested): rat FeCl3 model of arterial thrombosis; for Incidence of Occlusion: rat
Excerpt: This is a well characterized model of platelet dependent, arterial thrombosis which has been used in the evaluation potential antithrombotic compounds such as direct thrombin inhibitors. Kurz, K. D., Main, B. W., and Sandusky, G. E., Thromb. Res., 60: 269-280 (1990). In this model a platelet-rich, occlusive thrombus is formed in a segment of the rat carotid artery treated locally with a fresh solution of FeCl3 absorbed to a piece of filter paper. The FeCl3 is thought to diffuse into the treated segment of artery and causes de-endothelialization of the affected vessel surface. […] The effect of a test compound on the incidence of occlusive thrombus formation following the application of the FeCl3 is monitored by ultrasonic flowtometry and is used as the primary end point. The use of flowtometry to measure carotid artery blood flow, is a modification of the original procedure in which thermal detection of clot formation was employed. Kurz, K. D., Main, B. W., and Sandusky, G. E., Thromb. Res., 60: 269-280 (1990).
Male Harlan Sprague Dawley rats (420-450 g) were acclimated at least 72 hours prior to use and fasted for 12 hours prior to surgery with free access to water. The animals were prepared, anesthetized with Nembutal followed by the insertion of catheters for blood pressure monitoring, drug and anesthesia delivery. The left carotid artery was isolated by making a midline cervical incision followed by blunt dissection and spreading techniques to separate a 2 cm segment of the vessel from the carotid sheath. A silk suture is inserted under the proximal and distal ends of the isolated vessel to provide clearance for the placement of a ultrasonic flow probe (Transonic) around the proximal end of the vessel. The probe is then secured with a stationary arm.
Following surgery the animals were randomized in either a control (saline) or treatment group with test compound (BzlSO2 -norVal(cyclo)-Gly-Arg-al or N-(BnSO2 -norLeu(cyclo)Gly)-L-argininal)with at least 6 animals per group per dose. The test compound was administered as a single intravenous bolus at the doses outlined in Table 3 after placement of the flow probe and 5 minutes prior to the thrombogenic stimulus. At t=0, a 3 mm diameter piece of filter paper (Whatman #3) soaked with 10 microliters of a 35% solution of fresh FeCl3 (made up in water) was applied the segment of isolated carotid artery distal to the flow probe. Blood pressure, blood flow, heart rate, and respiration were monitored for 60 minutes.
The incidence of occlusion (defined as the attainment of zero blood flow) was recorded as the primary end point.
This allows a direct comparison of the antithrombotic efficacy of BzlSO2 -norVal(cyclo)-Gly-Arg-al and N-(BnSO2 -norLeu(cyclo)-Gly)-L-argininal with other antithrombotic agents which have also been evaluated in this model as described above. Table 6 lists the ED50 values for several well known anticoagulant agents in this model compared to the present compounds.

[3] = system: citrated rat plasma; test: Anticoagulant effect in rat plasma, activated partial thromboplastin time (APTT) assay; format: biochemical; conditions: for prolongation of the APTT: rat plasma, broad concentration range of added inhibitor
Procedure: (§1) The ex vivo anticoagulant effects of BzlSO2 -norVal (cyclo)-Gly-Arg-al(Example 8) and N-(BnSO2 -norLeu (cyclo)-Gly)-L-argininal (Example 34) were determined by measuring the prolongation of the activated partial thromboplastin time (APTT) over a broad concentration range of the added inhibitor, using pooled normal human and rat plasma.
(§2) Fresh frozen citrated pooled normal human plasma was obtained from George King Biomedical, Overland Park, Kans. Pooled normal rat plasma was prepared from citrated whole blood collected from anesthetized rats using standard procedures. The plasma was flash frozen and stored at -80° C. until use.
(§3) Measurements APTT was made using the Coag-A-Mate RA4 automated coagulometer (General Diagnostics, Organon Technica, Oklahoma City, Okla.) using the Automated APTT reagent (Organon Technica, Durham, N.C.) as the initiator of clotting according to the manufacturers instructions. The assay was conducted by making a series of dilutions of the test compounds in rapidly thawed plasma followed by adding 200 microliters to the wells of the assay carousel.

[4] = biological target: T2, bovine pancreatic trypsin (Bos taurus, UniProt P00760); test: In vitro enzyme assay for specificity: trypsin, IC50; format: biochemical; conditions: Table 2
T2 sequence (P00760 24-246): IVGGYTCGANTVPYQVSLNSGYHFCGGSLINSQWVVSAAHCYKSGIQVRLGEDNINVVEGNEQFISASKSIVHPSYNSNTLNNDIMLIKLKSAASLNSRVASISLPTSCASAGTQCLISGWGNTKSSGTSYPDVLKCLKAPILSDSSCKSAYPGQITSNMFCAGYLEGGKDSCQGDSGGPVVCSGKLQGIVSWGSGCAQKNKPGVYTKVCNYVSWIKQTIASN
Procedure: Trypsin catalytic activity was determined using the chromogenic substrate, S-2222 (benzoyl-L-isoleucine-L-glutamic acid-(gamma-methyl ester)-L-arginine-p-nitroanilide), which was obtained from Kabi Diagnostica. […] Purified (3×-crystallized; TRL3) bovine pancreatic trypsin was obtained from Worthington Biochemical Corp. The enzyme was reconstituted in deionized water and diluted into HBSA prior to assay in which the final concentration was 0.5 nM.

[5] = biological target: T3, Human rt-PA (Activase®) (Homo sapiens, UniProt P00750); test: In vitro enzyme assay for specificity: recombinant tissue plasminogen activator, IC50; format: biochemical; conditions: Table 3
T3 construct: purchased Genentech Inc. Activase®

[6] = system: citrated human plasma; test: Anticoagulant effect in human plasma, activated partial thromboplastin time (APTT) assay; format: biochemical; conditions: for concentration which caused a doubling of the control clotting time (APTT): citrated human plasma, mean of two independent determinations; for prolongation of the APTT: human plasma, broad concentration range of added inhibitor
Procedure: as §1, §2, §3

[7] = system: activated partial thromboplastin time (APTT); test: Oral activity in dogs: clotting time of blood samples by APTT assay; format: in vivo, beagle dogs; conditions: after oral dosing
Procedure: (§4) The pharmacodynamic and pharmacokinetic parameters of the compound of Example 34 were evaluated after oral administration in dogs. Adult beagle dogs (9-12 kg) were housed individually in standard cages, and were fed a standard certified commercial diet and tap water ad libitum. Dogs were given an oral dose of 20 mg/kg test compound, in 55 ml deionized water, via a gastric tube, followed by a water rinse. In a separate protocol, 5 mg/kg of test compound, in 5 ml 0.9% sodium chloride, were administered by fast bolus i.v. injection through an indwelling saphenous vein catheter. The same dogs were used for both routes of administration, with a one week wash out period between use of the dogs for the different protocols.
After mixing with the anticoagulant, each blood sample was immediately chilled by immersion in a slurry of ice and water. The plasma was separated by centrifugation (4° C., 2400 rpm, 10 min) within 10 min of collection, and then transferred to a cryotube and stored at […] until analysis.
(§5) The blood levels of test compound were measured by extracting the compound from plasma, separation by HPLC, and post-column derivatization with a fluorogenic functional group. The clotting time of blood was measured using an APTT assay, which measures the prolongation of the activated partial thromboplastin time (APTT) by the test compound. […]

[8] = Oral activity in dogs: blood levels and bioavailability; format: in vivo, beagle dogs
Procedure: as §4, with “protocols. […]” for “protocols.”
as §5
The systemic bioavailability of the test compound administered by the oral route was calculated by comparing the AUC values (area under curve describing level of compound in blood over time) after i.v. and oral administration. […]

[9] = biological target: human alpha-thrombin (Homo sapiens, UniProt P00734); test: Kinetic analysis in an in vitro thrombin inhibition assay (Ki); format: biochemical; conditions: Table 1; Mean ± SD, n = 3; steady state velocities over 40 minutes
[10] = biological target: human α-thrombin (Homo sapiens, UniProt P00734); test: In vitro enzyme assay for specificity: Thrombin (fIIa) assay, IC50; format: biochemical
Procedure: IC50 determinations were conducted where HBSA (50 μL), α-thrombin (50 μl) and inhibitor (50 μl) (covering a broad concentration range), were combined in appropriate wells and incubated for 30 minutes at room temperature prior to the addition of substrate Pefachrome-t-PA (50 μl).

[11] = biological target: human plasmin (Homo sapiens, UniProt P00747); test: In vitro enzyme assay for specificity: plasmin assay, IC50; format: biochemical; conditions: Table 3
Procedure: Plasmin catalytic activity was determined using the chromogenic substrate, S-2251 (D-valyl-L-leucyl-L-lysine-p-nitroanilide), which was obtained from Kabi Diagnostica.

[12] = 0.3 mg/kg single intravenous bolus 5 minutes prior to FeCl3, n 6, monitored 60 minutes
[13] = 1.0 mg/kg single intravenous bolus 5 minutes prior to FeCl3, n 6, monitored 60 minutes
[14] = 3.0 mg/kg single intravenous bolus 5 minutes prior to FeCl3, n 6, monitored 60 minutes
[15] = 5.0 mg/kg single intravenous bolus 5 minutes prior to FeCl3, n 6, monitored 60 minutes
[16] = Table 2, 30-minute incubation with enzyme before substrate, read-out: IC50 alpha-thrombin
[17] = Table 3, read-out: IC50 (nM) thrombin

human plasmin, sequence (P00747 97-580 limits assumed): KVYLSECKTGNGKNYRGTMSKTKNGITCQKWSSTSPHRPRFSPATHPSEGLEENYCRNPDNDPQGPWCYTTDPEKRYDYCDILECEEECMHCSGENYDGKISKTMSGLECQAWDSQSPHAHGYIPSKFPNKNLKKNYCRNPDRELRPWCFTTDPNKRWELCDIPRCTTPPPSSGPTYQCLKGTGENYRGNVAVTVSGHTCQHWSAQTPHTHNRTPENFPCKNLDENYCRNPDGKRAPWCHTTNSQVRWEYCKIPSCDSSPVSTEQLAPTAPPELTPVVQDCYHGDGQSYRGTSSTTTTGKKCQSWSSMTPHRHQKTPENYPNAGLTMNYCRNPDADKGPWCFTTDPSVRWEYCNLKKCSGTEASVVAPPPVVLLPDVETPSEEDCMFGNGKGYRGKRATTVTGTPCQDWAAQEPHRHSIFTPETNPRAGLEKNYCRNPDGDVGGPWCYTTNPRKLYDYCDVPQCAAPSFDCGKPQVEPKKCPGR
human plasmin, sequence (P00747 581-810 limits assumed): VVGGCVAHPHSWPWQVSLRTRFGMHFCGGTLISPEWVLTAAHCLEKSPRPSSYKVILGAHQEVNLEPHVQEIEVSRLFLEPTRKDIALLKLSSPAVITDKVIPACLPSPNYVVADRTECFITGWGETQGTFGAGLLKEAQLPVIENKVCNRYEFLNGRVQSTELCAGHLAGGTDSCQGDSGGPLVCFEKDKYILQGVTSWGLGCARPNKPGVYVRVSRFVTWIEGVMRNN
T3 sequence (P00750 36-562): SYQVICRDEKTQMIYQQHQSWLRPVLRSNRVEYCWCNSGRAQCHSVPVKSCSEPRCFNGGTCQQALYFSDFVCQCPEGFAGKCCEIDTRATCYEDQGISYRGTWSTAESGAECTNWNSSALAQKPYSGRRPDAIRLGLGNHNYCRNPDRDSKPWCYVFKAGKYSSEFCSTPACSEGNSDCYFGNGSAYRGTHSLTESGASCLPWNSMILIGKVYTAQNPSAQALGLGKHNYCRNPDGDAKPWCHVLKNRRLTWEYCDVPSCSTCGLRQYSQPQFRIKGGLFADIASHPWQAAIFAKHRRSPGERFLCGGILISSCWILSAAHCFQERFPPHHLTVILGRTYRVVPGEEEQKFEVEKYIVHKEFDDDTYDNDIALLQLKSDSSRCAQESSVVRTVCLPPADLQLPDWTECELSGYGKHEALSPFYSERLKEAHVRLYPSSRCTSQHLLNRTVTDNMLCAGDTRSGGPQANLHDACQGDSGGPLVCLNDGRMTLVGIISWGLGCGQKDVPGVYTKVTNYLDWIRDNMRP
T1 sequence (P04070 43-197 limits assumed): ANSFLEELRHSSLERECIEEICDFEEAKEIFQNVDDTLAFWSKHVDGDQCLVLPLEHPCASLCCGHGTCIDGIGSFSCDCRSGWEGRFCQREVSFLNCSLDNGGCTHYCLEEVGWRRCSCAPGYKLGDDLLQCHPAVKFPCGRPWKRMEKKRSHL
T1 sequence (P04070 212-461 limits assumed): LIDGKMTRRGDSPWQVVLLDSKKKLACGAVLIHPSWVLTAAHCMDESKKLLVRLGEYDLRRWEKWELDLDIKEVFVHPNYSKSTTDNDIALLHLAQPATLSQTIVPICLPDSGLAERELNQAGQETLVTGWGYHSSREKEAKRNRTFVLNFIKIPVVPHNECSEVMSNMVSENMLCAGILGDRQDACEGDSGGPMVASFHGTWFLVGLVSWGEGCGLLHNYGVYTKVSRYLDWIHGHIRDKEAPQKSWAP

Row | SMILES | IC50 [1] | IC50 [4] | IC50 [5] | IC50 [10, 17] | IC50 [11] | further results
1 | NC(N)=NCCC[C@@H](C=O)NC(=O)CN1CCCC(NS(=O)(=O)Cc2ccccc2)C1=O (stereo partly drawn) [Example 8, N-benzylsulfonyl-norVal(cyclo)-Gly-L-argininal] | > 2500 nM | 1550 nM | > 2500 nM | – | – | ED50 for thrombus prevention (dose that prevents complete thrombotic occlusion in 50% of animals tested) [2]: 0.75 mg/kg; Incidence of Occlusion [2, 12]: 6/6; Incidence of Occlusion [2, 13]: 2/6; Incidence of Occlusion [2, 14]: 1/6; Incidence of Occlusion [2, 15]: 0/6; concentration which caused a doubling of the control clotting time (APTT) ([3]; citrated rat plasma, control clotting time 20 sec, mean of two independent determinations): 22.1 µM; prolongation of the APTT [3]: prolonged the APTT in a dose-dependent manner; concentration which caused a doubling of the control clotting time (APTT) [6]: 12.8 µM; prolongation of the APTT [6]: prolonged the APTT in a dose-dependent manner
2 | NC(N)=NCCC[C@@H](C=O)NC(=O)CN1CCCCC(NS(=O)(=O)Nc2ccccc2)C1=O (stereo partly drawn) [Example 36(n), N-(phenylamino-SO2 -norLeu(cyclo)-Gly)-L-argininal] | – | – | – | 14.2 nM | > 2500 nM | –
3 | N=C(N)NCCC[C@@H](C=O)NC(=O)CN1CCCC(NS(=O)(=O)Cc2cccc(C(F)(F)F)c2)C1=O (stereo partly drawn) [Example 36(p), N-(3-trifluoromethylbenzyl-SO2-norLeu(cyclo)-Gly)-L-argininal] | > 2500 nM | – | > 2500 nM | 1.9 nM | > 2500 nM | –
4 | Cc1ccccc1CS(=O)(=O)NC1CCCN(CC(=O)N[C@H](C=O)CCCNC(=N)N)C1=O (stereo partly drawn) [Example 36(q), N-(2-methylbenzyl-SO2-norLeu(cyclo)-Gly)-L-argininal] | – | – | – | 1.71 nM | – | –
5 | NC(N)=NCCC[C@@H](C=O)NC(=O)CN1CCCC(N)(Cc2ccccc2)C1=O (stereo partly drawn) [Example 55, N-[D, L-3-Amino-3-benzyl-2-oxo-1-piperidineacetyl]-L-argininal] | > 2500 nM | – | > 2500 nM | 5.41 nM | > 2500 nM | –
6 | NC(N)=NCCC[C@@H](C=O)NC(=O)CN1CCCCC(N)(Cc2ccccc2)C1=O (stereo partly drawn) [Example 64, N-[D,.L-3-Amino-3-benzyl-hexahydro-2-oxo-azepine-1-acetyl]-L-argininal] | > 2500 nM | – | > 2500 nM | 5.41 nM | > 2500 nM | –
7 | N=C(N)NCCC[C@@H](C=O)NC(=O)CN1CCC[C@H](NCCc2ccccc2)C1=O [Example 72(a), N-[(S)-3-N-phenylethylamino-2-oxo-1-piperidineacetyl]-L-argininal] | > 2500 nM | – | > 2500 nM | 3.09 nM | > 2500 nM | –

The next lines start with results.

Row | IC50 [1] | IC50 [4] | IC50 [5] | IC50 [10, 17] | IC50 [11] | SMILES | further results
8 | – | 72 nM | – | 0.71 nM | – | NC(N)=NCCC[C@@H](C=O)NC(=O)CN1CCCCC(NS(=O)(=O)Cc2ccccc2)C1=O (stereo partly drawn) [Example 34, N-(BnSO2 -norLeu(cyclo)-Gly)-L-argininal] | time to significant elevation of APTT [7]: 20 to 30 min; time at which blood level of compound reached maximum levels ([8]; after administration): 30 to 40 min; systemic bioavailability (ratio of AUC oral to AUC i.v.) ([8]; oral 20 mg/kg vs i.v. 5 mg/kg, corrected for difference in dose): approximately 66%; ED50 for thrombus prevention (dose that prevents complete thrombotic occlusion in 50% of animals tested) [2]: 2.1 mg/kg; Incidence of Occlusion [2, 12]: 6/6; Incidence of Occlusion [2, 13]: 6/6; Incidence of Occlusion [2, 14]: 2/6; Incidence of Occlusion [2, 15]: 2/6; prolongation of the APTT [3]: prolonged the APTT in a dose-dependent manner; Ki [9]: 0.538 ± 0.08 nM; concentration which caused a doubling of the control clotting time (APTT) [6]: 4.5 µM; prolongation of the APTT [6]: prolonged the APTT in a dose-dependent manner; IC50 [10, 16]: 0.93 nM
9 | – | 7.86 nM | – | – | > 2500 nM | NC(N)=NCCC[C@@H](C=O)NC(=O)CN1CCCCC(NS(=O)(=O)CC2CCCCC2)C1=O (stereo partly drawn) [Example 36(i), N-(cyclohexylmethyl-SO2 -norLeu(cyclo)-Gly)-L-argininal] | IC50 [10, 16]: 4.54 nM
10 | – | – | – | 0.93 nM | – | Cc1cccc(CS(=O)(=O)NC2CCCCN(CC(=O)N[C@H](C=O)CCCN=C(N)N)C2=O)c1 (stereo partly drawn) [Example 36(r), N-(3-methylbenzyl-SO2-norLeu(cyclo)-Gly)-L-argininal] | –

Reference: patent US6034215A, “3-amino-2-oxo-1-piperidnercetic derivatives as enzyme inhibitors” (Corvas International, Inc., priority 1997, dated 2000)
